Assay results as given in US20210068395A1, “METHODS OF APPLYING ONE OR MORE CERTAIN HETEROARYL-1,2,4-TRIAZOLE AND HETEROARYL-TETRAZOLE COMPOUNDS TO CONTROL DAMAGE ON PLANTS, PROPAGATION MATERIAL THEREOF, AND PLANT DERIVED PRODUCTS” (SYNGENTA CROP PROTECTION AG, priority 2018, published 2021).

What was measured:
Assay type in all cases: in vivo
[1] = test system: Myzus persicae (Green Peach Aphid); assay: Myzus persicae feeding/contact activity; conditions: foliar, 144 h, application rate 200 ppm, sunflower leaf discs sprayed, 6 days after infestation
Procedure: Sunflower leaf discs were placed onto agar in a 24-well microtiter plate and sprayed with aqueous test solutions prepared from 10,000 ppm DMSO stock solutions. After drying, the leaf discs were infested with an aphid population of mixed ages. The samples were assessed for mortality 6 days after infestation.

[2] = test system: Frankliniella occidentalis (Western Flower Thrips); assay: Frankliniella occidentalis feeding/contact activity; conditions: foliar, 168 h, application rate 200 ppm, mixed ages on sunflower leaf discs, 7 days after infestation
Procedure: (§1) Sunflower leaf discs were placed on agar in 24-well microtiter plates and sprayed with aqueous test solutions prepared from 10,000 DMSO stock solutions. After drying the leaf discs were infested with a Frankliniella population of mixed ages. The samples were assessed for mortality 7 days after infestation.

[3] = test system: Nilaparvata lugens (Brown Plant Hopper); assay: Nilaparvata lugens larvicide, systemic into water; conditions: 168 h, test rate 12.5 ppm, into nutritive solution of rice plants, N3 nymphs, 7 days after infestation, read-out: control in at least one of the two categories (mortality or growth inhibition)
Procedure: Rice plants cultivated in a nutritive solution were treated with the diluted test solutions into nourishing cultivation system. 1 day after application plants were infested with ˜20 N3 nymphs. 7 days after infestation samples were assessed for mortality and growth inhibition.

[4] = test system: Euschistus heros (Neotropical Brown Stink Bug); assay: Euschistus heros feeding/contact activity; conditions: 120 h, application rate 200 ppm, N2 nymphs on soybean leaves, 5 days after infestation, read-out: control in at least one of the two categories (mortality or growth inhibition)
Procedure: Soybean leaves on agar in 24-well microtiter plates were sprayed with aqueous test solutions prepared from 10,000 ppm DMSO stock solutions. After drying the leaves were infested with N2 nymphs. The samples were assessed for mortality and growth inhibition 5 days after infestation.

[5] = test system: Diabrotica balteata (corn root worm); assay: Diabrotica balteata (corn root worm), sprayed maize sprouts; conditions: 96 h, application rate 200 ppm, L2 larvae, 4 days after infestation, read-out: control in at least one of the two categories (mortality or growth inhibition)
Procedure: Maize sprouts placed onto an agar layer in 24-well microtiter plates were treated with aqueous test solutions prepared from 10,000 ppm DMSO stock solutions by spraying. After drying, the plates were infested with L2 larvae (6 to 8 per well). The samples were assessed for mortality and growth inhibition in comparison to untreated samples 4 days after infestation.

[6] = test system: Aphis craccivora (Black Bean Aphid); assay: Aphis craccivora mixed population, contact/feeding; conditions: 120 h, test rate 200 ppm, pea seedlings sprayed, 5 days after treatment
Procedure: Pea seedlings infested with mixed aged aphid population were treated with diluted test solutions in a spray chamber. 5 days after treatment, samples were assessed for mortality.

[7] = test system: Nilaparvata lugens (Brown Plant Hopper); assay: Nilaparvata lugens larvicide, feeding/contact; conditions: 168 h, test rate 200 ppm, N3 nymphs on sprayed rice plants, 7 days after treatment, read-out: control in at least one of the two categories (mortality or growth inhibition)
Procedure: Rice plants were treated with the diluted test solutions in a spray chamber. After drying plants were infested with ˜20 N3 nymphs. 7 days after the treatment samples were assessed for mortality and growth inhibition.

[8] = test system: Myzus persicae (Green Peach Aphid); assay: Myzus persicae feeding activity (sucrose solution, Parafilm); conditions: 120 h, test rate 12.5 ppm, in sucrose solution, 5 days after infestation
Procedure: Test compounds prepared from 10,000 ppm DMSO stock solutions were applied by pipette into 24-well microtiter plates and mixed with sucrose solution. The plates were closed with a stretched Parafilm. A plastic stencil with 24 holes was placed onto the plate and infested pea seedlings were placed directly on the Parafilm. The infested plate was closed with a gel blotting paper and another plastic stencil and then turned upside down. The samples were assessed for mortality 5 days after infestation.

[9] = test system: Thrips tabaci (Onion thrips); assay: Thrips tabaci feeding/contact activity; conditions: foliar, 144 h, application rate 200 ppm, sunflower leaf discs, 6 days after infestation, read-out: control in at least one of the two categories (mortality or anti-feeding)
Procedure: as §1, with “10,000 ppm” for “10,000”, “thrips” for “Frankliniella”, “mortality, and anti-feeding 6” for “mortality 7”

[10] = test system: Spodoptera littoralis (Egyptian Cotton Leaf Worm); assay: Spodoptera littoralis feeding/contact activity; conditions: foliar, 72 h, application rate 200 ppm, L1 larvae on cotton leaf discs, 3 days after infestation, read-out: control in at least one of the three categories (mortality or growth inhibition or anti-feeding)
Procedure: Cotton leaf discs were placed onto agar in 24-well microtiter plates and sprayed with aqueous test solutions prepared from 10,000 ppm DMSO stock solutions. After drying the leaf discs were infested with five L1 larvae. The samples were assessed for mortality, anti-feeding and growth inhibition 3 days after infestation.

[11] = test system: Plutella xylostella (Diamond Back Moth); assay: Plutella xylostella feeding/contact activity, 24-well artificial diet; conditions: 192 h, application rate 200 ppm, 24-well artificial diet, 8 days after infestation, read-out: control in at least one of the two categories (mortality or growth inhibition)
Procedure: 24-well microtiter plates with artificial diet were treated with aqueous test solutions prepared from 10,000 ppm DMSO stock solutions by pipetting. After drying, Plutella eggs were pipetted through a plastic stencil onto a gel blotting paper and the plate was closed with it. The samples were assessed for mortality and growth inhibition in comparison to untreated samples 8 days after infestation.

[12] = test system: Spodoptera littoralis (Egyptian Cotton Leaf Worm); assay: Spodoptera littoralis systemic activity (lettuce); conditions: 144 h, test rate 12.5 ppm, root uptake in lettuce, 6 days after infestation, read-out: control in at least one of the three categories (mortality or growth inhibition or anti-feeding)
From the text: Test compounds were applied by pipette prepared from 10,000 ppm DMSO stock solutions into 24-well plates and mixed with agar. Lettuce seeds were placed onto the agar and the multi well plate was closed by another plate which contained also agar. After 7 days the compound was absorbed by the roots and the lettuce grew into the lid plate. The lettuce leaves were then cut off into the lid plate. Spodoptera eggs were pipetted through a plastic stencil onto a humid gel blotting paper and the lid plate was closed with it. The samples were assessed for mortality, anti-feeding and growth inhibition 6 days after infestation.

[13] = test system: Plutella xylostella (Diamond Back Moth); assay: Plutella xylostella feeding/contact activity, 96-well artificial diet; conditions: 216 h, application rate 500 ppm, 9 days after infestation
Procedure: 1, 2, 3, 4, 17, 19, 23, 26, 39, 41, 42, 54, 55, 56 Plutella xylostella (Diamond Back Moth):Feeding/Contact Activity 96-well microtiter plates containing artificial diet were treated with aqueous test solutions, prepared from 10,000 ppm DMSO stock solutions, by a liquid handling robot. After drying, eggs (˜30 per well) were infested onto a netted lid which was suspended above the diet. The eggs hatch and L1 larvae move down to the diet. The samples were assessed for mortality 9 days after infestation.

CC(c1ncnn1-c1ncccn1)N(C)C(=O)c1cc(C(F)(F)F)cc(C(F)(F)F)c1 (stereo not drawn) [Compound 1]
≥ 80%: mortality at 200 ppm [1] | mortality at 200 ppm [2] | percent control (mortality or growth inhibition) at 12.5 ppm [3] | percent control (mortality or growth inhibition) at 200 ppm [4] | percent control (mortality or growth inhibition) at 200 ppm [5] | mortality at 200 ppm [6] | percent control (mortality or growth inhibition) at 200 ppm [7] | mortality at 12.5 ppm [8] | percent control (mortality, anti-feedant effect or growth inhibition) at 200 ppm [9] | percent control (mortality, anti-feedant effect or growth inhibition) at 200 ppm [10] | percent control (mortality or growth inhibition) at 200 ppm [11] | percent control (mortality, anti-feedant effect or growth inhibition) at 12.5 ppm [12] | mortality at 500 ppm [13]

CC(c1ncnn1-c1ncccn1)N(CC1CC1)C(=O)c1cc(C(F)(F)F)cc(C(F)(F)F)c1 (stereo not drawn) [Compound 3]
≥ 80%: mortality at 200 ppm [1] | mortality at 200 ppm [2] | percent control (mortality or growth inhibition) at 12.5 ppm [3] | percent control (mortality or growth inhibition) at 200 ppm [4] | percent control (mortality or growth inhibition) at 200 ppm [5] | mortality at 200 ppm [6] | percent control (mortality or growth inhibition) at 200 ppm [7] | mortality at 12.5 ppm [8] | percent control (mortality, anti-feedant effect or growth inhibition) at 200 ppm [9] | percent control (mortality, anti-feedant effect or growth inhibition) at 200 ppm [10] | percent control (mortality or growth inhibition) at 200 ppm [11] | percent control (mortality, anti-feedant effect or growth inhibition) at 12.5 ppm [12] | mortality at 500 ppm [13]

CC(NC(=O)c1cc(C(F)(F)F)cc(C(F)(F)F)c1)c1ncnn1-c1ncccn1 (stereo not drawn) [Compound 4]
≥ 80%: mortality at 200 ppm [1] | mortality at 200 ppm [2] | percent control (mortality or growth inhibition) at 12.5 ppm [3] | percent control (mortality or growth inhibition) at 200 ppm [4] | percent control (mortality or growth inhibition) at 200 ppm [5] | mortality at 200 ppm [6] | percent control (mortality or growth inhibition) at 200 ppm [7] | mortality at 12.5 ppm [8] | percent control (mortality, anti-feedant effect or growth inhibition) at 200 ppm [9] | percent control (mortality, anti-feedant effect or growth inhibition) at 200 ppm [10] | percent control (mortality or growth inhibition) at 200 ppm [11] | percent control (mortality, anti-feedant effect or growth inhibition) at 12.5 ppm [12] | mortality at 500 ppm [13]
